Laboratory results as given in article PMC11915372, “Identification of a Series Containing a Pentafluorophenyl Moiety That Targets Pks13 to Inhibit Growth of Mycobacterium tuberculosis” (ACS Infectious Diseases, 2025).
Values after ≈ are worked out from the molar mass of the structure shown. Like-named read-outs stand apart in the source and are kept apart here.

Experiments:
[1] = human liver microsomes
[2] = type: in vitro ADME, mouse
M. tuberculosis (H37Rv) = test: microbe, parasite or virus in culture; type: cell-based, Mycobacterium tuberculosis; conditions: Mycobacterium tuberculosis, H37RV
[3] = type: in vitro ADME, mouse; remark: listed apart in the source
HepG2 cells = test: HepG2 cytotoxicity; conditions: Homo sapiens
Excerpt: Assays to establish HepG2 cytotoxicity, in vitro microsomal/hepatocyte metabolic stability, aqueous kinetic solubility, and in vivo pharmacokinetic profiles were all performed as previously described.[15],[35]−[37]

physchem [4] = type: physicochemical
physchem [5] = conditions: pH 7.4
[6] = test system: mycolic acid biosynthesis; conditions: with accumulation of mycolic acid precursors; cited from earlier work
M. tuberculosis H37Rv [7] = type: in vivo; conditions: C57BL/6J mice, oral dosing for 8 days from day 1 post-infection, qPCR
[8] = test system: H37Rv growing inside J774 macrophages; test: Intramacrophage efficacy; type: cell-based, Mycobacterium tuberculosis; conditions: 7 days of treatment
M. tuberculosis H37Rv [9] = type: cell-based, Mycobacterium tuberculosis
[10] = mouse, in vivo
in vitro = conditions: plasma
in vivo = conditions: C57BL/6J, mouse, po
[11] = efficacy experiment at 20 times the oral PK dose
[12] = HepG2, read-out: HepG2 inhibitory concentration (IC50)
[13] = read-out: Wk2_7H9/DPPC/ casitone/ Tyloxapol MIC
[14] = read-out: Wk2_ 7H9/DPPC/ cholesterol/BSA/ Tyloxapol MIC
[15] = read-out: Wk2_7H9/glucose/ BSA/Tyloxapol MIC
[16] = read-out: Wk2_7H9/glucose/ casitone/ Tyloxapol MIC
[17] = pH 7.4, aqueous buffer, kinetic from dmso stock

Compound | Mouse micro Cl ([2]; mouse, microsomes) | MIC (M. tuberculosis (H37Rv); read-out: H37Rv MIC A) | MIC (M. tuberculosis (H37Rv); read-out: H37Rv MIC B) | Mouse Heps Cl ([3]; mouse, hepatocytes) | IC50 (HepG2 cells; [12]) | chromatographic logD (physchem [5]) | Microsomal Cli ([2]; CD1, mouse) | MIC (M. tuberculosis (H37Rv); [13]) | MIC (M. tuberculosis (H37Rv); [14]) | MIC (M. tuberculosis (H37Rv); [15]) | MIC (M. tuberculosis (H37Rv); [16]) | Hepatocyte Cli ([3]; mouse) | solubility kinetic (physchem [4]; [17]) | solubility kinetic (physchem [4]; read-out: Kin. Sol) | also measured
COC(=O)c1c(NC(=O)c2c(F)c(F)c(F)c(F)c2F)sc2c1CCCCC2 [TP2, reference compound] | 15 mLmin/g | 0.11 µM (≈ 0.0461 µg/mL) | 1.2 µM (≈ 0.503 µg/mL) | 43.2 mLmin/g | 13 µM | 4.6 | – | – | – | – | – | – | – | – | time to complete elimination of parent ([1]; glutathione conjugation): ≤ 6 min; solubility kinetic (physchem [4]; water, kinetic from dmso stock): 0.2 µM (≈ 0.0839 µg/mL); effect on mycolic acid biosynthesis [6]: inhibited mycolic acid biosynthesis
COc1c(N2C[C@@H]3CCCN[C@@H]3C2)c(F)cc2c(=O)c(C(=O)O)cn(C3CC3)c12 [Moxifloxacin, reference compound] | – | – | – | – | – | – | – | – | – | – | – | – | – | – | reduction in bacterial DNA in lungs compared to the untreated control (M. tuberculosis H37Rv [7]): ~3 log
CCOC(=O)c1c(NC(=O)c2c(F)c(F)c(F)c(F)c2F)sc(C(N)=O)c1C [TP4, reference compound] | 13 mLmin/g | 0.03 µM (≈ 0.0127 µg/mL) | 0.26 µM (≈ 0.11 µg/mL) | >50 mLmin/g | 4.3 µM | 3.4 | – | – | – | – | – | – | – | – | solubility kinetic (physchem [4]; water, kinetic from dmso stock): 1.1 µM (≈ 0.465 µg/mL); effect on mycolic acid biosynthesis [6]: inhibited mycolic acid biosynthesis
Cc1noc(-c2nc(C)oc2NC(=O)c2c(F)c(F)c(F)c(F)c2F)n1 [Compound 43, Cc1noc(n1)-c1nc(oc1NC(=O)c1c(c(c(c(c1F)F)F)F)F)C] | <0.5 mL/min/g | 0.8 µM (≈ 0.299 µg/mL) | 1.8 µM (≈ 0.674 µg/mL) | 3.4 mL/min/g | > 100 µM | 1.2 | <0.5 mL/min/g | 0.8 µM (≈ 0.299 µg/mL) | 1.8 µM (≈ 0.674 µg/mL) | 1.8 µM (≈ 0.674 µg/mL) | 0.7 µM (≈ 0.262 µg/mL) | 3.4 mL/min/g | 196 µM (≈ 73.3 µg/mL) | 196 µM (≈ 73.3 µg/mL) | concentration required to exert a cidal effect [8]: 10 µM; reduction in bacterial DNA in lungs compared to the untreated control (M. tuberculosis H37Rv [7]): no reduction in DNA levels; parental material remaining ([1]; after 90 min, glutathione/NADPH): 57%; CFU reduction relative to input bacterial counts (M. tuberculosis H37Rv [9]; treatment for 3 days): ~1 log units; CFU reduction relative to input bacterial counts (M. tuberculosis H37Rv [9]; treatment for 7 days): ~2 log units; bioavailability [10]: very good; clearance [10]: very good; half-life [10]: moderate; volume of distribution [10]: limited; fraction unbound (in vitro): 0.03; AUC(0-t) (in vivo): 167 µg·h/mL; Cmax (in vivo): 30000 ng/mL; increase of Cmax in the animal efficacy study versus oral PK study [11]: < 3 fold
COC(=O)c1c(C)noc1NC(=O)c1c(F)c(F)c(F)c(F)c1F [Compound 22, COC(=O)c1c(noc1NC(=O)c1c(c(c(c(c1F)F)F)F)F)C] | 3.8 mLmin/g | 0.97 µM (≈ 0.34 µg/mL) | 3.1 µM (≈ 1.09 µg/mL) | 45.6 mLmin/g | > 100 µM | 1.5 | 3.8 mL/min/g | 1 µM (≈ 0.35 µg/mL) | 3.1 µM (≈ 1.09 µg/mL) | 2.3 µM (≈ 0.805 µg/mL) | 0.8 µM (≈ 0.28 µg/mL) | 46 mL/min/g | 242 µM (≈ 84.7 µg/mL) | 242 µM (≈ 84.7 µg/mL) | –
COC(=O)c1cnccc1NC(=O)c1c(F)c(F)c(F)c(F)c1F [Compound 16, COC(=O)c1cnccc1NC(=O)c1c(c(c(c(c1F)F)F)F)F] | 20 mLmin/g | 0.1 µM (≈ 0.0346 µg/mL) | 0.6 µM (≈ 0.208 µg/mL) | >50 mLmin/g | 64 µM | 3.2 | 20 mL/min/g | 0.1 µM (≈ 0.0346 µg/mL) | 0.6 µM (≈ 0.208 µg/mL) | 0.3 µM (≈ 0.104 µg/mL) | 0.15 µM (≈ 0.0519 µg/mL) | >50 mL/min/g | 112 µM (≈ 38.8 µg/mL) | 112 µM (≈ 38.8 µg/mL) | –
CCOC(=O)c1nc(C)oc1NC(=O)c1c(F)c(F)cc(F)c1F [Compound 28, CCOC(=O)c1nc(oc1NC(=O)c1c(c(cc(c1F)F)F)F)C] | – | > 50 µM | > 50 µM | – | – | 1.7 | – | > 50 µM | > 50 µM | > 50 µM | > 50 µM | – | – | – | Mouse micro Cl ([2]; intrinsic clearance (Cli), CD1 mouse liver microsomes, Tables 1-4): <0.5 mLmin/g; Microsomal Cli ([2]; supplement data table): <0.5 mL/min/g; Mouse Heps Cl ([3]; intrinsic clearance (Cli), mouse hepatocytes, Tables 1-4): 0.88 mLmin/g; Hepatocyte Cli ([3]; supplement data table): 0.9 mL/min/g; IC50 (HepG2 cells; HepG2, read-out: Hs-HEPG IC50): > 100 µM; solubility kinetic (physchem [4]; kinetic solubility in water, read-out: Kin. Sol): 163 µM (≈ 56.4 µg/mL); solubility kinetic (physchem [4]; pH 7.4, aqueous buffer, kinetic from dmso stock, pH7.4, read-out: Kinetic Solubility pH7.4): 163 µM (≈ 56.4 µg/mL)
CCOC(=O)c1nc(COC)oc1NC(=O)c1c(F)c(F)c(F)c(F)c1F [Compound 33, CCOC(=O)c1nc(oc1NC(=O)c1c(c(c(c(c1F)F)F)F)F)COC] | <0.5 mL/min/g | 1.2 µM (≈ 0.473 µg/mL) | 2.3 µM (≈ 0.907 µg/mL) | 7.5 mL/min/g | > 100 µM | 1.6 | <0.5 mL/min/g | 1.2 µM (≈ 0.473 µg/mL) | 2.3 µM (≈ 0.907 µg/mL) | 2.3 µM (≈ 0.907 µg/mL) | 1.2 µM (≈ 0.473 µg/mL) | 7.5 mL/min/g | 227 µM (≈ 89.5 µg/mL) | 227 µM (≈ 89.5 µg/mL) | –
CCOC(=O)c1nc(C)oc1NC(=O)c1c(F)cc(F)c(F)c1F [Compound 27, CCOC(=O)c1nc(oc1NC(=O)c1c(cc(c(c1F)F)F)F)C] | 0.80 mLmin/g | 3.1 µM (≈ 1.07 µg/mL) | 4.7 µM (≈ 1.63 µg/mL) | 3.4 mLmin/g | > 100 µM | 1.9 | 0.8 mL/min/g | 3.1 µM (≈ 1.07 µg/mL) | 4.7 µM (≈ 1.63 µg/mL) | 4.7 µM (≈ 1.63 µg/mL) | 2.3 µM (≈ 0.796 µg/mL) | 3.4 mL/min/g | 232 µM (≈ 80.3 µg/mL) | 232 µM (≈ 80.3 µg/mL) | –
Cc1ncc(NC(=O)c2c(F)c(F)c(F)c(F)c2F)o1 [Compound 37, Cc1ncc(o1)NC(=O)c1c(c(c(c(c1F)F)F)F)F] | <0.5 mL/min/g | > 50 µM | > 50 µM | 5.8 mL/min/g | > 100 µM | 1.9 | <0.5 mL/min/g | > 50 µM | > 50 µM | > 50 µM | > 50 µM | 5.8 mL/min/g | 105 µM (≈ 30.7 µg/mL) | 105 µM (≈ 30.7 µg/mL) | –
